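Cultured in 96-well plates, cells were exposed to test compound for 48 hours across five concentrations. GI50: concentration for 50% inhibition of growth. Definition used: TGI = concentration required for complete inhibition of growth.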
Key:
Experiment in all cases: NCI tumour cell line growth inhibition, 48 h
[1] = test system: OVCAR-3 ovarian
[2] = test system: SN12C renal
[3] = test system: IGROV1 ovarian
[4] = test system: CCRF-CEM leukemia
[5] = test system: M14 melanoma
[6] = test system: EKVX NSCLC
[7] = test system: SR leukemia
[8] = test system: SW-620 colon
[9] = test system: K-562 leukemia
[10] = test system: UACC-257 melanoma

Row | Structure (SMILES) | TGI [1] | TGI [2] | TGI [3] | TGI [4] | TGI [5] | TGI [6] | TGI [7] | TGI [8] | TGI [9] | TGI [10] | GI50 [1] | GI50 [2] | GI50 [3] | GI50 [4] | GI50 [5] | GI50 [6] | GI50 [7] | GI50 [8] | GI50 [9] | GI50 [10]
1 | O=C(O)C1CCc2nnc(-c3ccccc3)n21 (stereo unspecified) | > 100 µM | > 100 µM | > 100 µM | > 100 µM | > 100 µM | > 100 µM | > 100 µM | > 100 µM | > 100 µM | > 100 µM | – | – | – | – | – | – | – | – | – | –
2 | Cc1oc2nc[nH]c(=O)c2c1C(=O)/C=C/c1ccc(Cl)cc1 | 7.83 µM | 14.2 µM | 10.8 µM | 6.94 µM | 6.72 µM | 15.9 µM | 6.3 µM | 7.19 µM | 11.3 µM | 12.7 µM | 2.3 µM | 2.79 µM | 1.82 µM | 1.81 µM | 1.96 µM | 2.37 µM | 1.51 µM | 2.53 µM | 1.82 µM | 2.72 µM
3 | CCC1=C(C)/C(=C/c2[nH]c(C(Br)Br)c(CC)c2C)N=C1C(Br)Br | > 100 µM | > 100 µM | > 100 µM | 55.3 µM | > 100 µM | > 100 µM | 32.6 µM | > 100 µM | > 100 µM | 57.6 µM | – | – | – | – | – | – | – | – | – | –
4 | COc1ccc(C[n+]2c3ccccc3n3c4ccc(N)cc4ccc32)c(OC)c1OC | 8.97 µM | 11 µM | 40 µM | 45.7 µM | 33.3 µM | 58.9 µM | 19.2 µM | 36.5 µM | > 100 µM | 8.02 µM | 1.69 µM | 0.626 µM | 4.58 µM | 4.28 µM | 14.9 µM | 3.08 µM | 2.75 µM | 8.39 µM | 4.87 µM | 2.56 µM
5 | CC1(C)OC(=O)[C@@](C)([C@H](O)c2ccccc2)O1 | > 100 µM | > 100 µM | > 100 µM | > 100 µM | > 100 µM | > 100 µM | > 100 µM | > 100 µM | > 100 µM | > 100 µM | – | – | – | – | – | – | – | – | – | –
6 | CC(N=C(N)N)C(=O)O (stereo unspecified) | > 100 µM | > 100 µM | > 100 µM | > 100 µM | > 100 µM | > 100 µM | > 100 µM | > 100 µM | > 100 µM | > 100 µM | – | – | – | – | – | – | – | – | – | –
7 | O=C1c2cccc3cc([N+](=O)[O-])cc(c23)C(=O)N1NC1=NCCN1 | > 100 µM | > 100 µM | > 100 µM | > 100 µM | > 100 µM | > 100 µM | > 100 µM | > 100 µM | > 100 µM | > 100 µM | – | – | – | – | – | – | – | – | – | –
8 | CC(C)(C)[Si](C)(C)OCC1CCC(n2cnc3c(=O)[nH]cnc32)O1 (stereo unspecified) | > 100 µM | > 100 µM | > 100 µM | > 100 µM | > 100 µM | > 100 µM | > 100 µM | > 100 µM | > 100 µM | > 100 µM | – | – | – | – | – | – | – | – | – | –
9 | O=C(Cn1c(=O)c(-c2ccccc2)nc2ccccc21)c1ccc(Cl)cc1 | > 100 µM | > 100 µM | > 100 µM | > 100 µM | > 100 µM | > 100 µM | > 100 µM | > 100 µM | > 100 µM | > 100 µM | 46.6 µM | 48.6 µM | 63.3 µM | > 100 µM | > 100 µM | 94.2 µM | 37.1 µM | > 100 µM | > 100 µM | > 100 µM
10 | N#CC(C#N)=Cc1c(-c2ccccc2)[nH]c2ccccc12 | 5.29 µM | > 73.3 µM | 31.9 µM | 43.8 µM | > 56.6 µM | > 86.4 µM | > 100 µM | > 35.1 µM | > 100 µM | > 64.7 µM | 1.66 µM | 5.82 µM | 0.743 µM | 2.41 µM | 1.88 µM | 5.81 µM | > 100 µM | 0.523 µM | 0.478 µM | 23.9 µM
11 | NC(=O)c1cc(-c2ccncc2)cc(-c2ccccc2)c1N | > 25 µM | > 25 µM | > 25 µM | > 25 µM | > 25 µM | > 25 µM | > 25 µM | > 25 µM | > 25 µM | > 25 µM | 20.5 µM | 12.9 µM | 9.48 µM | > 25 µM | > 25 µM | > 20.2 µM | 13.5 µM | > 25 µM | > 20.1 µM | > 25 µM
12 | NC1=NC(c2ccc(Cl)cc2)N(c2ccc(S(=O)(=O)Nc3ncccn3)cc2)C(N)=N1 (stereo unspecified) | > 100 µM | > 100 µM | > 100 µM | > 100 µM | > 100 µM | > 100 µM | > 100 µM | > 100 µM | > 100 µM | > 100 µM | – | – | – | – | – | – | – | – | – | –
13 | COc1cc(=O)oc(/C=C/C=O)c1C | 33.4 µM | 20.7 µM | > 100 µM | 88.3 µM | 33.8 µM | 94.6 µM | 7.6 µM | 37.6 µM | > 100 µM | 35.4 µM | – | – | – | – | – | – | – | – | – | –
14 | COc1cc([N+](=O)[O-])c(S(=O)(=O)O)cc1NS(=O)(=O)c1ccc(C)cc1 | > 100 µM | > 100 µM | > 100 µM | > 100 µM | > 100 µM | > 100 µM | > 100 µM | > 100 µM | > 100 µM | > 100 µM | – | – | – | – | – | – | – | – | – | –
15 | CCNC(C)(C)C(SS)c1ccc(Br)cc1 (stereo unspecified) | > 100 µM | > 100 µM | > 100 µM | 60 µM | > 100 µM | > 100 µM | > 100 µM | 56.2 µM | > 100 µM | 90.8 µM | – | – | – | – | – | – | – | – | – | –
16 | COC(=O)C1CC(=O)CCC1c1ccccc1 (stereo unspecified) | > 100 µM | > 100 µM | > 100 µM | > 100 µM | > 100 µM | > 100 µM | > 100 µM | > 100 µM | > 100 µM | > 100 µM | – | – | – | – | – | – | – | – | – | –
17 | CC[C@@]1(OC(=O)CN)C(=O)OCc2c1cc1n(c2=O)Cc2cc3cc4c(cc3nc2-1)OCO4 | 0.412 µM | 0.563 µM | 0.815 µM | – | 0.0439 µM | > 100 µM | – | – | – | 0.417 µM | < 0.0239 µM | < 0.01 µM | < 0.0145 µM | < 0.01 µM | < 0.01 µM | 0.0735 µM | < 0.01 µM | < 0.01 µM | < 0.01 µM | < 0.0234 µM
